Test results taken from US20120122870A1, “Treatment Of Ischemia-Reperfusion Injury” (MUSC FOUNDATION FOR RESEARCH DEVELOPMENT, priority 2009, published 2012).

Each compound was assayed on endogenous SK activity in MDA-MB-231 cells (assay: Cellular S1P production (endogenous SK activity) in MDA-MB-231 cells). Details: Homo sapiens, MDA-MB-231, MDA-MB-231 cells incubated with 20 μg/mL of compound; percentage of S1P production inhibited.
Format: cell-based
Experimental: (§1) Human SK was incubated with 6 μg/mL of the indicated compounds, and then assayed for activity as described above. Values in the column labeled “Recombinant SK (% inhibition)” represent the percentage of SK activity that was inhibited. MDA-MB-231 cells were incubated with 20 μg/mL of the indicated compounds and then assayed for endogenous SK activity as indicated above. Values in the column labeled “Cellular S1P (% inhibition)” represent the percentage of S1P production that was inhibited. Additionally, MDA-MB-231 cells were treated with varying concentration of certain compounds and the amount of S1P produced by the cells was determined. Values in the column labeled “Cellular S1P IC50 (μM)” represent the concentration of compound required to inhibit the production of S1P by 50%. ND=not determined.
In the case of `O=C(NCc1ccc(F)cc1Cl)c1nc(-c2ccc(Cl)cc2)cs1` [B38, 4-(4-Chloro-phenyl)-thiazole-2-carboxylic acid 2-chloro-4-fluoro-benzylamide], the inhibition at 20 µg/mL is reported as 0%.
With `O=C(NCCc1ccncc1)c1cccc(-c2ccc(Cl)cc2)c1` [B84, 4′-Chloro-biphenyl-3-carboxylic acid (2-pyridin-4-yl-ethyl)-amide] the inhibition at 20 µg/mL was 76%.
Compound `O=C(NCc1cc(F)c(F)c(F)c1)c1nc(-c2ccc(Cl)cc2)cs1` [B42, 4-(4-Chloro-phenyl)-thiazole-2-carboxylic acid 3,4,5-trifluoro-benzylamide] has an inhibition at 20 µg/mL of 0%.
With `O=C(C=Cc1ccc([N+](=O)[O-])cc1)Nc1nc2cc(Cl)ccc2o1` [B89, N-(5-Chloro-benzooxazol-2-yl)-3-(4-nitro-phenyl)-acrylamide] the inhibition at 20 µg/mL was 74%.
`O=C(Nc1nc2cc(Cl)ccc2s1)c1ccccc1O` [B96, N-(5-Chloro-benzothiazol-2-yl)-2-hydroxy-benzamide] was tested, and the inhibition at 20 µg/mL was 18%.
Work on `O=C(NCc1ccncc1)c1cccc(-c2ccc(Cl)cc2)c1` [B81, 4′-Chloro-biphenyl-3-carboxylic acid (pyridin-4-ylmethyl)-amide] yielded an inhibition at 20 µg/mL of 14%.
`O=C(C=Cc1ccc2c(c1)OCO2)Nc1nc(-c2ccc(Cl)cc2)cs1` [B21, 3-Benzo[1,3]dioxol-5-yl-N-[4-(4-chloro-phenyl)-thiazol-2-yl]-acrylamide] was tested, and the inhibition at 20 µg/mL was 41%.
In the case of `O=C(NCCN1CCOCC1)c1nc(-c2ccc(Cl)cc2)cs1` [B76, 4-(4-Chloro-phenyl)-thiazole-2-carboxylic acid (2-morpholin-4-yl-ethyl)-amide], the inhibition at 20 µg/mL is reported as 81%.
Compound `O=C(Cc1ccc2c(c1)OCO2)Nc1nc(-c2ccc(Cl)cc2)cs1` [B22, 2-Benzo[1,3]dioxol-5-yl-N-[4-(4-chloro-phenyl)-thiazol-2-yl]-acetamide] has an inhibition at 20 µg/mL of 33%.
For `CN(C)c1ccc(CNC(=O)c2nc(-c3ccc(Cl)cc3)cs2)cc1` [B35, 4-(4-Chloro-phenyl)-thiazole-2-carboxylic acid 4-dimethylamino-benzylamide], the inhibition at 20 µg/mL was 17%.

Same assay, conditions: Homo sapiens; MDA-MB-231 cells, varying concentrations; concentration inhibiting S1P production by 50%
`O=C(C=Cc1ccc([N+](=O)[O-])cc1)Nc1nc2cc(Cl)ccc2o1` [B89, N-(5-Chloro-benzooxazol-2-yl)-3-(4-nitro-phenyl)-acrylamide] gave an IC50 of 5.8 µM.
`O=C(NCCN1CCOCC1)c1nc(-c2ccc(Cl)cc2)cs1` [B76, 4-(4-Chloro-phenyl)-thiazole-2-carboxylic acid (2-morpholin-4-yl-ethyl)-amide] was tested, and the IC50 was 5 µM.

Each compound was assayed against T1, recombinant human SK (Homo sapiens, UniProt Q9NYA1) (assay: Recombinant human SK activity assay ([3H]sphingosine to [3H]S1P)). Details: Human SK incubated with 6 μg/mL of compound; percentage of SK activity inhibited.
T1 construct: GST (glutathione-S-transferase) (N); made in house; host or cells: bacteria (pGEX bacterial expression vector)
T1 sequence (Q9NYA1 whole entry): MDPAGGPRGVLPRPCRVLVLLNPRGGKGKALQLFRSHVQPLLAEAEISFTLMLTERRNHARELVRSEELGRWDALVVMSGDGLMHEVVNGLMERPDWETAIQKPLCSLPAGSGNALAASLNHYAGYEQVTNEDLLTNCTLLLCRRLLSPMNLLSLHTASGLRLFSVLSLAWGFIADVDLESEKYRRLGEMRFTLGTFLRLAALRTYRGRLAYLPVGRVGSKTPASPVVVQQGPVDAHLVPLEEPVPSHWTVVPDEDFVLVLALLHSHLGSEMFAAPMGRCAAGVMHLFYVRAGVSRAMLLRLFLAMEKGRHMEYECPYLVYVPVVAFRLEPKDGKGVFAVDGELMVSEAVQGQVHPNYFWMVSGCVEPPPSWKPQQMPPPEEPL
Format: biochemical
Experimental: SK activity is measured by incubation of the recombinant SK with [^3H]sphingosine and 1 mM ATP under defined conditions, followed by extraction of the assay mixture with chloroform:methanol under basic conditions. […] Radioactivity in aliquots of the aqueous phase is then quantified as a measure of [^3H]S1P formation.
as §1
`Fc1ccc(CNCC23CC4CC(C2)CC(c2ccc(Cl)cc2)(C4)C3)cc1C(F)(F)F` [A79, [3-(4-Chloro-phenyl)-adamantan-1-ylmethyl]-(4-fluoro-3-trifluoromethyl-benzyl)-amine] was tested, and the inhibition at 6 µg/mL was 19%.
`O=C(NCCCn1ccnc1)C12CC3CC(C1)CC(c1ccc(Cl)cc1)(C3)C2` [A65, 3-(4-Chloro-phenyl)-adamantane-1-carboxylic acid (3-imidazol-1-yl-propyl)-amide] was tested, and the inhibition at 6 µg/mL was 3%.
`O=C(/C=C/c1ccc(Cl)nc1)C12CC3CC(C1)CC(c1ccc(Cl)cc1)(C3)C2` [A134, 1-[3-(4-Chloro-phenyl)-adamantan-1-yl]-3-(6-chloro-pyridin-3-yl)-propenone] gave an inhibition at 6 µg/mL of 52%.
With `O=C(/C=C/c1ccc2ccccc2c1)C12CC3CC(C1)CC(c1ccc(Cl)cc1)(C3)C2` [A133, 1-[3-(4-Chloro-phenyl)-adamantan-1-yl]-3-naphthalen-2-yl-propenone] the inhibition at 6 µg/mL was 36%.
For `FC(F)(F)Oc1ccc(CNCC23CC4CC(C2)CC(c2ccc(Cl)cc2)(C4)C3)cc1` [A80, [3-(4-Chloro-phenyl)-adamantan-1-ylmethyl]-(4-trifluoromethoxy-benzyl)-amine], the inhibition at 6 µg/mL was 5%.
With `Clc1ccc(C23CC4CC(CC(CNCCCN5CCCC5)(C4)C2)C3)cc1` [A85, [3-(4-Chloro-phenyl)-adamantan-1-ylmethyl]-(3-pyrrolidin-1-yl-propyl)-amine] the inhibition at 6 µg/mL was 0%.
`O=C(NCc1cc(F)c(F)c(F)c1)C12CC3CC(C1)CC(c1ccc(Cl)cc1)(C3)C2` [A22, 3-(4-Chloro-phenyl)-adamantane-1-carboxylic acid 3,4,5-trifluoro-benzylamide] gave an inhibition at 6 µg/mL of 56%.
For `O=C(NCc1ccc(F)cc1Cl)C12CC3CC(C1)CC(c1ccc(Cl)cc1)(C3)C2` [A25, 3-(4-Chloro-phenyl)-adamantane-1-carboxylic acid 2-chloro-4-fluoro-benzylamide], the inhibition at 6 µg/mL was 47%.
In the case of `O=C(NCCc1cccc(Oc2ccccc2)c1)C12CC3CC(C1)CC(c1ccc(Cl)cc1)(C3)C2` [A46, 3-(4-Chloro-phenyl)-adamantane-1-carboxylic acid [2-(3-phenoxy-phenyl)-ethyl]-amide], the inhibition at 6 µg/mL is reported as 4%.
Work on `COc1ccc(CCNC(=O)C23CC4CC(C2)CC(c2ccc(Cl)cc2)(C4)C3)cc1Br` [A42, 3-(4-Chloro-phenyl)-adamantane-1-carboxylic acid [2-(3-bromo-4-methoxy-phenyl)-ethyl]-amide] yielded an inhibition at 6 µg/mL of 5%.
Work on `CC(Nc1ccccc1)C12CC3CC(CC(c4ccccc4)(C3)C1)C2` (centres unmarked) [A93, Phenyl-[1-(3-phenyl-adamantan-1-yl)-ethyl]-amine] yielded an inhibition at 6 µg/mL of 70%.
In the case of “4-(4-Chloro-phenyl)-thiazole-2-carboxylic acid 4-phenoxy benzylamide [B54]”, the “Recombinant SK (% inhibition)” value is reported as 25%.
Compound `N#Cc1ccc(/C=C/C(=O)C23CC4CC(C2)CC(c2ccc(Cl)cc2)(C4)C3)cc1` [A131, 4-{3-[3-(4-Chloro-phenyl)-adamantan-1-yl]-3-oxo-propenyl}-benzonitrile] has an inhibition at 6 µg/mL of 41%.
In the case of `O=C1CCCN1CCCNC(=O)C12CC3CC(C1)CC(c1ccc(Cl)cc1)(C3)C2` [A55, 3-(4-Chloro-phenyl)-adamantane-1-carboxylic acid [3-(2-oxo-pyrrolidin-1-yl)-propyl]-amide], the inhibition at 6 µg/mL is reported as 8%.
In the case of `O=C(NCc1ccc(OC(F)(F)F)cc1)C12CC3CC(C1)CC(c1ccc(Cl)cc1)(C3)C2` [A32, 3-(4-Chloro-phenyl)-adamantane-1-carboxylic acid 4-trifluoromethoxy-benzylamide], the inhibition at 6 µg/mL is reported as 17%.
For `CS(=O)(=O)c1ccc(CNC(=O)C23CC4CC(C2)CC(c2ccc(Cl)cc2)(C4)C3)cc1` [A30, 3-(4-Chloro-phenyl)-adamantane-1-carboxylic acid 4-methanesulfonyl-benzylamide], the inhibition at 6 µg/mL was 1%.
`O=C(NCc1ccc(C(F)(F)F)cc1)C12CC3CC(C1)CC(c1ccc(Cl)cc1)(C3)C2` [A16, 3-(4-Chloro-phenyl)-adamantane-1-carboxylic acid 4-trifluoromethyl-benzylamide] was tested, and the inhibition at 6 µg/mL was 8%.
For `O=C(NCc1ccc(Oc2ccccc2)cc1)C12CC3CC(C1)CC(c1ccc(Cl)cc1)(C3)C2` [A34, 3-(4-Chloro-phenyl)-adamantane-1-carboxylic acid 4-phenoxy-benzylamide], the “Recombinant SK (% inhibition)” value was 0%.
`O=C(NCc1ccc(F)c(C(F)(F)F)c1)C12CC3CC(C1)CC(c1ccc(Cl)cc1)(C3)C2` [A24, 3-(4-Chloro-phenyl)-adamantane-1-carboxylic acid 4-fluoro-3-trifluoromethyl-benzylamide] was tested, and the inhibition at 6 µg/mL was 20%.
`O=C(NCc1ccc(F)c(F)c1)C12CC3CC(C1)CC(c1ccc(Cl)cc1)(C3)C2` [A21, 3-(4-Chloro-phenyl)-adamantane-1-carboxylic acid 3,4-difluoro-benzylamide] was tested, and the inhibition at 6 µg/mL was 65%.
`O=C(NCc1cc(F)cc(F)c1)C12CC3CC(C1)CC(c1ccc(Cl)cc1)(C3)C2` [A20, 3-(4-Chloro-phenyl)-adamantane-1-carboxylic acid 3,5-difluoro-benzylamide] was tested, and the inhibition at 6 µg/mL was 0%.
For `NCc1c(Cl)c(Cl)c(Cl)c(CNC(=O)C23CC4CC(C2)CC(c2ccc(Cl)cc2)(C4)C3)c1Cl` [A27, 3-(4-Chloro-phenyl)-adamantane-1-carboxylic acid 3-aminomethyl-2,4,5,6-tetrachloro-benzylamide], the inhibition at 6 µg/mL was 50%.
In the case of `CC(NC1CCN(C)CC1)C12CC3CC(CC(C3)C1)C2` (centres unmarked) [A104, (1-Adamantan-1-yl-ethyl)-(1-methyl-piperidin-4-yl)-amine], the inhibition at 6 µg/mL is reported as 0%.
Compound `Clc1ccc(C23CC4CC(CC(CNCc5ccncc5)(C4)C2)C3)cc1` [A88, [3-(4-Chloro-phenyl)-adamantan-1-ylmethyl]-pyridin-4-ylmethyl-amine] has an inhibition at 6 µg/mL of 1%.
Work on `Clc1ccc(C23CC4CC(CC(CNCCc5cccc(Oc6ccccc6)c5)(C4)C2)C3)cc1` [A81, [3-(4-Chloro-phenyl)-adamantan-1-ylmethyl]-[2-(3-phenoxy-phenyl)-ethyl]-amine] yielded an inhibition at 6 µg/mL of 67%.
`O=C(NCc1ccc(O)c(O)c1)C12CC3CC(C1)CC(c1ccc(Cl)cc1)(C3)C2` [A36, 3-(4-Chloro-phenyl)-adamantane-1-carboxylic acid 3,4-dihydroxy-benzylamide] showed an inhibition at 6 µg/mL of 37%.
`O=C(NCc1ccc(Cl)c(C(F)(F)F)c1)C12CC3CC(C1)CC(c1ccc(Cl)cc1)(C3)C2` [A26, 3-(4-Chloro-phenyl)-adamantane-1-carboxylic acid 4-chloro-3-trifluoromethyl-benzylamide] showed an inhibition at 6 µg/mL of 36%.
Work on `CC(C)(C)NCCCNCC12CC3CC(C1)CC(c1ccc(Cl)cc1)(C3)C2` [A84, N-tert-Butyl-N′-[3-(4-chloro-phenyl)-adamantan-1-ylmethyl]-propane-1,3-diamine] yielded an inhibition at 6 µg/mL of 84%.
For `CN(C)c1ccc(CNC(=O)C23CC4CC(C2)CC(c2ccc(Cl)cc2)(C4)C3)cc1` [A31, 3-(4-Chloro-phenyl)-adamantane-1-carboxylic acid 4-dimethylamino-benzylamide], the inhibition at 6 µg/mL was 74%.
